Usually Tmax stands for the time at which the peak concentration occurs. The term AUC(0-inf) denotes the area under the concentration-time curve extrapolated to infinity. Low readings indicate less exposure, high ones more exposure. Broadly, the AUC(0-t) is the area under the concentration-time curve up to a stated or last time point. Read a high AUC(0-t) as high exposure. Usually Cmax stands for the peak of the concentration-time curve. What is called half-life is the time needed for the level to fall by half in the phase considered. Read a high half-life as slow loss.

From patent US20230172936A1, “VCP/p97 INHIBITOR FOR THE TREATMENT OF CANCER” (Cleave Therapeutics, Inc., priority 2020, published 2023) come the findings set out here.

SMILES strings stand for the structures. “And” between values parts separate entries of the source, which are not always exact repeats. Identical values can stand only once. Like-named read-outs stand apart in the source and are kept apart here.

One series concerns MLL-AF9 cells. The experiment in a line: MLL-AF9 allogenic disseminated mouse model of AML. It counts as in vivo, mice. Particulars: 90 mg/kg oral gavage, 4 days on/3 days off, vs vehicle. The protocol:
Compound 1 was tested in the MLL-AF9 allogenic disseminated mouse model of AML. 200,000 MLL-AF9-cells were injected via tail vein into 6-week-old C57BL/6 male mice (The Jackson Laboratory). Starting at day 8 after cell injection, mice were treated with Compound 1 delivered through oral gavage (90 mg/kg) or vehicle (0.5% methylcellulose) on a dosing schedule of 4 days “on” (administered on each of 4 days sequentially) followed by 3 days “off” (no administration on each of 3 sequential days) for 2 full cycles (two weeks total of 4 on/3 off).
The proportion of MLL-AF9 cells in peripheral blood (n=6 mice per group) was measured at 12 days post-injection of MLL-AF9 cells using flow cytometry. Murine peripheral blood, bone marrow and spleen were collected from each organ, washed with PBS-0.1% BSA-2 mM EDTA and lysed for 10 minutes with red blood cell lysis buffer (Sigma). After two washing steps with PBS-0.1% BSA-2 mM EDTA, bone marrow cells were stained for 30 minutes at 4° C. with corresponding cell surface antibodies for CD45 (CD45 […], Invitrogen). Cells were then washed twice with PBS-0.1% BSA-2 mM EDTA before analysis of 10,000 cells gated for CD45+(high) with BD FACSCanto II (BD Biosciences) to isolate the AML blast population. Statistical significance determined using Mann-Whitney test in comparison with vehicle. Error bars represent mean±SEM. […]

The nature of series [1]: Human plasma pharmacokinetics (Phase I dose escalation). An excerpt:
BID dosing may be also tested depending on initial PK assessments. Participants will be evaluated regularly for safety assessments including physical examinations and laboratory testing. Bone marrow aspirates and/or biopsies will be performed at regular intervals, including for assessment of tumor response as per 2017 European LeukemiaNet (ELN) response criteria for AML or 2006 revised International Working Group (IWG) response criteria for MDS. Peripheral blood samples will be collected in Cycle 1 for intensive PK testing and PD biomarker assessments. Additional intensive PK testing will be collected for any participants undergoing intra-patient dose escalation.
A cycle consists of 28 days and the first cycle will comprise the DLT observation period.
Following the protocol of Example 7, additional patients were treated in the dose escalation study.

The text on series [2]: Group 1 received PO 4-days on, 3-days off doses (QD4/3 off) of vehicle.

As for `Cc1cc2c(C(N)=O)cccc2n1-c1nc2c(c(NCc3ccccc3)n1)CCCN2` [Compound 1, 1-(4-(Benzylamino)-5,6,7,8-tetrahydropyrido[2,3-d]pyrimidin-2-yl)-2-methyl-1H-indole-4-carboxamide], the overall survival result in the series on MLL-AF9 cells (2 cycles) was “improved the overall survival”. Further, the “circulating blast counts (MLL-AF9 cells in peripheral blood)” value in the series on MLL-AF9 cells (12 days post-injection) is listed as “reduced circulating blast counts”. In series [1] (25 mg QD, Day 4), this compound showed an AR of 0.914. In addition, in series [1] (25 mg QD, between days 1 and 4), the accumulation result is given as “No accumulation”. The “exposure with concomitant proton pump inhibitors (PPi)” value in series [1] (100 mg QD, two of three subjects) is “lower exposure”. Also, the “exposure level increases between the doses” value in series [1] (25, 50, 100 and 175 mg QD, 9 patients) was “proportional and linear”. Besides, the “plasma exposure compared with CB-5083” value in series [1] (Compound 1 25 mg QD vs CB-5083 40 mg QD) is “significantly higher plasma exposure”. Moreover, the “exposures compared with CB-5083” value in series [1] (Compound 1 25 mg QD vs CB-5083 at greater than 200 mg, FIG. 7) is “greater than dosing CB-5083 at greater than 200 mg”; in series [1] (dose escalation 25-175 mg QD, FIG. 8), “greater than dosing CB-5083”. Further, the Tmax in series [1] (human, in vivo, 25 mg) was 2 h. The compound also showed a tmax in series [1] (human, in vivo, 25 mg) of 2 h. The AUC(0-inf) in series [1] (human, in vivo, 25 mg, AUC0-inf) was 1.03 µM·h and 425 ng·h/mL. Moreover, the AUC(0-t) in series [1] (human, in vivo, 25 mg, AUC0-t) is 0.88 µM·h and 364 ng·h/mL. Also, in series [1] (human, in vivo, 25 mg, Cmax), the Cmax is 198 nM and 81.7 ng/mL. The half-life in series [1] (human, in vivo, 25 mg, half-life) is 3 to 4 h; in series [1] (human, in vivo, 25 mg, t1/2), 2.61 h. The drug-related deaths entry in series [2] (100 mg/kg QD4/3 off) was “a single drug-related death”. Moreover, the “tolerability of dosing regimen” value in series [2] (100 mg/kg QD4/3 off) is “generally tolerated”. In series [2] (100 mg/kg QD4/3 off, day 2), the “mean body weight loss” value is listed as −7.0%. Besides, in series [2] (150 mg/kg BIW cohort), the deaths result was “No deaths”. In addition, the body weight loss was −1.5% in series [2] (150 mg/kg BIW, day 2); −3.9% in series [2] (150 mg/kg BIW, day 3); −8.1% in series [2] (225 mg/kg weekly, day 4). Moreover, in series [2] (225 mg/kg 1/W cohort), the drug related deaths entry is listed as “A single drug related death”.
